Experimental data as given in PMC8003416, “Modulation of Human Phenylalanine Hydroxylase by 3-Hydroxyquinolin-2(1H)-One Derivatives” (Biomolecules, 2021).
Where two headings read alike, the source gives them in different places.

How the values were obtained:
Type in all cases: biochemical
[1] = molecular target: T1, human phenylalanine hydroxylase (hPAH) (Homo sapiens, UniProt P00439); test: hPAH enzymatic activity assay (NA, 3HQ-A and Phe/3HQ-A conditions); details: 100 μM compound; for remaining activity at 100 µM: read-out: hPAH residual activity vs control
T1 construct: Recombinant full-length wild-type (WT) hPAH was expressed in E. coli Top10 cells in fusion with a hexa-histidyl peptide; made in house; host or cells: E. coli Top10
T1 sequence (P00439 1-452): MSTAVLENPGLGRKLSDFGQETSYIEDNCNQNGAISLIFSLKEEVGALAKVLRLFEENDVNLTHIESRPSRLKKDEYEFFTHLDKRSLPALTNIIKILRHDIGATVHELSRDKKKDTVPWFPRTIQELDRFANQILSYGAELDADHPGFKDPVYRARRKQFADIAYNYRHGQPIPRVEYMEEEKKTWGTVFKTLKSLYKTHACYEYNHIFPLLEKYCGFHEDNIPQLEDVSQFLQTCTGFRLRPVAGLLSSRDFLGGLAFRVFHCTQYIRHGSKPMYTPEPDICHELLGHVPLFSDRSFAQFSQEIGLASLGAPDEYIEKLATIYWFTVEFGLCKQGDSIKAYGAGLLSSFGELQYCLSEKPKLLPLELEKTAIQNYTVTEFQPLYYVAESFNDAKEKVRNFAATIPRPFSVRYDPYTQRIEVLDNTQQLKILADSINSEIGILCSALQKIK
Description: The hPAH activity was measured essentially as previously described. Briefly, the enzymatic reaction was performed in a 200 μL final volume, containing 250 mM Na-HEPES, pH 7, 0.1 mg/mL catalase (Sigma-Aldrich; St. Louis, MO, USA), 5 μg (final concentration of 0.112 μM of tetramer) of recombinant hPAH tetramers and 100 μM (NH4)2Fe(II)SO4. Using 100 μM L-Phe and 100 μM of tested compound, three experimental conditions were used to study the compounds’ modulatory effect, namely: non activated (NA), 3HQ-activated (3HQ-A) and substrate/3HQ-activated (Phe/3HQ-A) (Supplementary Figure S3). The reaction was started by addition of 75 μM BH4 (Schircks Laboratories; Bauma, Switzerland) prepared in 5 mM ascorbic acid. In the NA assay, the L-Phe substrate and tested compounds were added together with 75 µM BH4 at the start of the hydroxylation reaction. In the 3HQ-A condition, hPAH was pre-incubated with the tested compound for 4 min at 25 °C and the reaction was started by the addition of BH4 together with L-Phe. In the Phe/3HQ-A condition, hPAH was pre-incubated simultaneously with L-Phe and the tested compound (4 min, 25 °C). Appropriate control reactions were performed where the compounds were omitted and 1% DMSO was used. Kinetic parameters were determined using variable concentrations of L-Phe (25 to 2500 μM) and fixed concentrations of BH4 (75 μM) and tested compound (100 μM). After a 1-min incubation, the reaction was stopped, and the amount of L-Tyr produced was quantified by HPLC as previously described. The specific hPAH enzymatic activity is expressed as nmol of L-Tyr produced during 1 min per mg of protein (nmol L-Tyr.min^−1.mg^−1). The steady-state kinetic data were analyzed by nonlinear regression analysis using GraphPad Prism (La Jolla, CA, USA). Data was fitted to the modified Hill equation accounting for cooperative substrate binding as well as substrate inhibition (Equation (1)), to the modified Michaelis–Menten equation which accounts for substrate inhibition (Equation (2)) and to the non-modified Michaelis–Menten equation:v = (Vmax + Vi ([S]^x/Ki^x))/(1 + (K^h/[S]^h) + ([S]^x/Ki^x))(1) v = (Vmax [S])/(Km + [S](1 + [S]/Ki))(2)

trypsin = test: Trypsin activity control with Z-Gly-Gly-Arg-AMC; details: 100 μM compound; for relative (residual) trypsin activity: 1% DMSO control = 100%; for Trypsin Abs/min: control 512 ± 11
Description: To rule out compounds that inhibit/inactivate trypsin, changes in the cleavage rate of N-(Benzyloxy)carbonyl-glycylglycylarginyl-7-amido-4-methylcoumarin (Z–Gly–Gly–Arg–AMC; Bachem, Bubendorf, Switzerland), a synthetic substrate of trypsin, were monitored by fluorimetric measurements in a microplate reader (FLUOstar Omega; BMGLabtech, Ortenberg, Germany). The assays (n = 3) were performed in a 96-well plate, in SEC buffer and in a final volume of 200 μL containing 1.5 μg/mL of trypsin, 50 μM of Z–Gly–Gly–Arg–AMC and 100 μM of 3HQs derivatives. Fluorescence was measured in real-time, with λexc 360 nm and λem 460 nm, during 30 min at 25 °C. Controls were performed using substrate alone with 1% DMSO (negative control) and trypsin with no compounds and 1% DMSO (positive control).

Factor Xa (FXa) = molecular target: T2, Factor Xa (FXa) (Bos taurus, UniProt P00743); test: Factor Xa activity control with Boc-Ile-Glu-Gly-Arg-AMC; details: 100 μM compound; for FXa relative (residual) enzyme activity: 1% DMSO control = 100%; for Factor Xa Abs/min: control 597 ± 16
T2 construct: purchased New England Biolabs
Description: Self-assembly of the dimeric forms of hPAH-RD^1–120 was followed in real-time at 25 °C upon cleavage of MBP-FXa-hPAH-RD^1–120 with FXa (New England Biolabs) to release the MBP fusion partner. Assays (n = 3) were performed in the absence or presence of tested compounds as described in [17]. Briefly, FXa (at a final ratio 1:150 (w/w) relative to the fusion protein) was added to the reaction mixture containing the MBP-FXa-hPAH-RD^1–120 fusion protein (0.74 mg/mL), 20 mM Na-HEPES, 100 mM NaCl, pH 7.0 and tested 3HQ (100 μM). The increase in absorbance at 350 nm was followed for 180 min on a FLUOstar Omega (BMG Labtech) microplate reader. A shaking step was introduced before each measurement. Appropriate control assays were performed and included: (i) a positive control consisting of MBP-FXa-hPAH-RD^1–120 in the presence of FXa, 1% DMSO and in the absence of compounds; and (ii) a negative control consisting of MBP-FXa-hPAH-RD^1–120 in the absence of FXa and compounds. For all the assays, aliquots of the aggregation reaction were collected at the end of the reaction (180 min) and analyzed by SDS-PAGE to confirm the extent of MBP cleavage by FXa. In addition, the effect of tested compounds on FXa activity was monitored using the synthetic FXa substrate Boc–Ile–Glu-Gly–Arg–AMC (t-(Butyloxycarbonyl)-isoleucylglutamylglycylarginyl-7-amido-4-methylcoumarin; from Bachem). Assays (n = 3) were performed in a 96-well plate, in a final volume of 200 μL containing 20 mM Na-HEPES, 100 mM NaCl, pH 7.0, 5 μg/mL of FXa, 50 μM of Boc–Ile-Glu–Gly–Arg–AMC and 100 μM of 3HQ derivatives. Fluorescence was measured in real-time (λexc 360 nm and λem 460 nm) during 30 min, at 25 °C. Controls were performed using substrate alone with 1% DMSO (negative control) and FXa with no compounds and 1% DMSO (positive control).

T2 sequence (P00743 234-492 limits assumed): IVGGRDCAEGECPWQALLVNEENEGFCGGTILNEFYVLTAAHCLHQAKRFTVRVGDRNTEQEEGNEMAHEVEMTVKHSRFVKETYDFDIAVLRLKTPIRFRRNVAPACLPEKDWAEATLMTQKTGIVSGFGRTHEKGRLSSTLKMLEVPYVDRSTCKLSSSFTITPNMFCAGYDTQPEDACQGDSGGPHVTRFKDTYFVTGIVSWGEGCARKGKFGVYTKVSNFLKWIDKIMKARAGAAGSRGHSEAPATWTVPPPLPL
T2 sequence (P00743 41-180 partner limits assumed): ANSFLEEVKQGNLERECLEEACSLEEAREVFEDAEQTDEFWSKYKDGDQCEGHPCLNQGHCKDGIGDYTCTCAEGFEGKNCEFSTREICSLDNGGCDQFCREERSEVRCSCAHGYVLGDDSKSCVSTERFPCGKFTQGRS

| SMILES | fold activation by L-Phe (Phe/3HQ-A vs. 3HQ-A) ([1]; 100 μM L-Phe) | remaining activity at 100 µM ([1]; NA (non-activated) condition) | relative (residual) trypsin activity (trypsin) | Trypsin Abs/min (trypsin) | FXa relative (residual) enzyme activity (Factor Xa (FXa)) | Factor Xa Abs/min (Factor Xa (FXa)) | remaining activity at 100 µM ([1]; 3HQ-A condition (4 min pre-incubation with compound, 25 °C)) | hPAH activity, fold increase vs control ([1]; NA (non-activated) condition, 100 μM L-Phe, 1% DMSO control) | remaining activity at 100 µM ([1]; Phe/3HQ-A condition (pre-incubation with L-Phe and compound)) | fold enzyme activation by compound (3HQ-A vs. NA) [1] |
| --- | --- | --- | --- | --- | --- | --- | --- | --- | --- | --- |
| COC(=O)CC[C@H](NC(=O)c1c(O)c(=O)[nH]c2ccc(OC(F)(F)F)cc12)C(=O)OC [Compound 9] | 1.4 fold | 58% | 71% | 362 ± 9 Abs/min | 77% | 465 ± 29 Abs/min |  |  |  |  |
| O=C(NCCc1ccccc1)c1c(O)c(=O)[nH]c2ccc(OC(F)(F)F)cc12 [Compound 8] | 1.7 fold |  | 62% | 319 ± 7 Abs/min |  |  |  |  |  |  |
| CCOC(=O)[C@H](Cc1ccccc1)NC(=O)c1c(O)c(=O)[nH]c2ccc(OC(F)(F)F)cc12 [Compound 3] | 1.3 fold |  | 79% | 403 ± 12 Abs/min |  |  | 69% | 1.1 fold | 57% |  |
| COC(=O)CNC(=O)c1c(O)c(=O)[nH]c2ccc(OC(F)(F)F)cc12 [Compound 11] | 1.5 fold |  | 92% | 470 ± 11 Abs/min | 69% | 407 ± 8 Abs/min |  |  |  | 1.6 fold |
